From a melting point compilation (Tetko et al.; mined from patent text by program, amines drawn as free bases though some values may be those of a salt) come the findings set out here.

For orientation: melting point means the temperature of the solid-liquid transition. With `CCN(CC)CC(O)CSCC(=O)O` (stereo not given), the melting point came out at 104 °C.
Next, `C[C@H]1C=CC2=C[C@@H](O)C[C@H](OC(=O)CC(C)(C)C)[C@@H]2[C@H]1CC[C@@H]1C[C@@H](O)CC(=O)O1`: 155 °C.
Regarding `O=C(O)Cn1c(=O)c(=O)[nH]c2ccc3ccc(-n4ccc(CN5CC=C(c6ccccc6)CC5)c4)cc3c21`, the melting point is > 250 °C.
The value for `O=C(c1cnc2ccccc2c1)C1CCN(C(=O)c2ccccc2)CC1` was 170 °C; that for `CCOC(=O)c1cc(OC)c2c(c1)C(=O)c1c(F)ccc(OC)c1C2=O` was 201 to 203 °C.
The value for `O=Cc1scc2c1-c1cccc3cccc-2c13` was 123 to 126 °C; that for `CC(CCN)P(C)(=O)O` (stereo not given) was 68 to 75 °C.
On to `CC(=O)c1ccc(S(=O)(=O)NN2CCCCC2)cc1`, for which the melting point fell in the range of 137 to 139 °C.
The value for `CC(C)CC(=O)Nc1cccc(-c2ccnc3c(-c4cccc(C#N)c4)cnn23)c1` was 166 to 167 °C.
The value for `CN(C)c1snc2c1c(N)nc(=O)n2Cc1ccccc1` was 190 to 195 °C; that for `CON=C(C[N+](=O)[O-])NCc1cccnc1` was 77 to 78 °C; that for `COc1cc(C(=O)CC(=O)c2ccccc2O)cc([N+](=O)[O-])c1OC` was 188 to 189 °C.
The value for `COC(=O)CN1CCN(c2cccc(-c3nc4cc(OC)cc(OC)c4c(=O)[nH]3)n2)CC1` was 176 to 177 °C; that for `O=C1CCN(C(=O)Cl)c2ccc(Cl)cc21` was 114 to 116 °C; that for `CCOC(=O)c1nnc2ccc(NS(C)(=O)=O)cc2c1O` was 274 to 275 °C.
`CC(C1OCCO1)N(C)C(=O)Nc1nnc(S(=O)(=O)N(C)C)s1` (stereo not given): the melting point fell in the range of 194 to 196 °C.
Turning to `N#CCCc1ccc(C(=O)O)cc1`, the melting point is 182 °C.
Next, `COc1ccc2c(c1)S(=O)(=O)N=CN2CCF`: 123 to 128 °C; `CC(C)(C)NS(=O)(=O)c1ccccc1C=C1CCOC1=O`: 173 to 176 °C; `CN(C)C1(c2ccccc2)CCC(CCCNC(=O)NCCc2c[nH]c3ccccc23)CC1` (stereo not given): 57 °C.
The value for `CC(C)(C)OC(=O)CN(C(=O)CCl)c1ccccc1` was 86 °C; that for `Cc1onc(C(=O)c2ccccc2Cl)c1N` was 75 to 78 °C.
Next, `O=C(Nc1ccc2c(c1)C=CC2)C(F)(F)F`: 132 °C; `CCOC(=O)c1conc1-c1ccc(Cl)cc1`: 43 to 45 °C.
With `CC1C=C(c2cccc(C(F)(F)F)c2)n2ncc(C#N)c2N1C(=O)CCl` (stereo not given), the melting point was 160 to 163 °C.
On to `CC(=O)C1CCC2C3CCC4=CC(=O)C=CC4(C)C3CCC12CO[N+](=O)[O-]` (stereo not given), for which the melting point fell in the range of 148 to 150 °C.
Next, `CCCn1cnc2c1c(=O)n(CCCCOc1ccc(OC)cc1)c(=O)n2C`: 61 to 62 °C; `COc1cc(N=C(NC#N)Oc2ccccc2)cc(C(F)(F)F)c1`: 168 to 170 °C; `O=c1[nH]c(=O)n(C2CC(OCc3ccccc3Cl)C(CO)O2)cc1F` (stereo not given): 78 to 80 °C.
The value for `Cc1ccnc(C)c1O` was 105 to 106 °C.
Next, `N#Cc1ccc(N2CCC[C@H]2C(N)=O)c2ccccc12`: 177 to 178 °C; `Nc1nc2cc(Cl)c(Cl)cc2nc1-c1cccs1`: 235 to 237 °C; `O=C1c2ccccc2C(=O)N1CC(=O)N1c2ccccc2N(Cc2ccccc2)C[C@@H]2CCC[C@H]21` (relative stereo): 232 to 234 °C.
Take `Cc1cc(C)nc(NC(=O)NS(=O)(=O)c2ccsc2C2=CC(=O)CCC2)n1`: the melting point was in the range of 190 to 192 °C.
The value for `Cc1cccc2c(N3CCSCC3)nc(Cl)cc12` was 134 to 136 °C; that for `CNC(=O)C1=CC(CF)(CF)Oc2ccc(C(F)(F)C(F)(F)F)cc21` was 127 to 128 °C.
The value for `CC(C)(C)OC(=O)C[C@@H](CC1CCCC1)C(=O)O` was 86.5 to 88 °C; that for `Cc1cccc(CC(=O)c2ccnc(-c3ccc(C(=O)N4CCOCC4)cc3)c2)n1` was 106 °C; that for `CCOc1ccn(C2OC(CO)C(O)C2O)c(=O)n1` (stereo not given) was 110 to 114 °C.
As to `Cc1cc(OC2CCS(=O)(=O)CC2)cc(C)c1-c1cccc(COc2ccc(C3CC3C(=O)O)cc2)c1` (stereo not given), the melting point lay in the range of 161 to 162 °C.
The value for `CCOC(=O)C(C#N)=Cc1ccc(OC)c(OC2CCCC2)c1` was 109 to 110 °C; that for `CC(=O)n1c(C)cc(=O)n(-c2cc(C(=O)OC(C)C)c(Cl)cc2F)c1=O` was 168 to 170 °C; that for `CN1CCN(C(=O)Nc2ccccc2CCc2cc(C(C)(C)C)c(O)c(C(C)(C)C)c2)CC1` was 134 to 137 °C.
`CCSc1ccc2nc(C(F)(F)F)c(S(N)(=O)=O)n2n1` gave a melting point of 208 to 210 °C.
Next, `Cc1c(-c2ccc(NC(=O)OC(C)(C)C)cc2)nc2n1CCc1ccccc1C2OC1CCN(C)CC1` (stereo not given): 194 °C; `CC(C)(C)OC(=O)C1CCN(C(=O)C2CN(c3ccc(C(=N)N)cc3)C(=O)O2)CC1` (stereo not given): 160 °C.
Next, `N#CCc1ccc(OCCCN2CCN(C34CC5CC(CC(C5)C3)C4)CC2)cc1`: 136 to 138 °C; `O=C1CCC(c2ccccc2)(c2ccccc2)C2CN(C(Cc3ccccc3)=NCc3ccccn3)CC12` (stereo not given): 180 °C.
The value for `CC(C)CCC(=O)N[C@@H](CC(C)C)C(=O)N[C@@H](C(C)C)[C@@H](O)c1c(-c2ccccc2)c1=O` was 148 to 151 °C; that for `CCOc1cc(OCC)c2c(C)c(CCCl)c(=O)oc2c1` was 123 to 126 °C; that for `CC(C)c1cccc(C(C)C)c1NS(=O)(=O)CC(=O)O` was 153 to 155 °C.
In the case of `Cc1ccc(-c2c(NS(=O)(=O)c3ccc(C(C)(C)C)cc3)ncnc2OCCOc2ccc(NC(=O)C(C)(C)C)cn2)cc1`, the melting point lay in the range of 140 to 141 °C.
The value for `CN1CCN(Cc2ccc(Nc3ccnc4cc(C(F)(F)F)ccc34)cc2)CC1` was 218 to 220 °C; that for `O=C(c1ccccc1)N1CCN(c2ccc3nc4[nH]c(=O)[nH]c4cc3c2)CC1` was > 300 °C; that for `CCCCCCCCCCCCCCP(=O)(OC)OC` was 32 to 33 °C.
Next, `N#Cc1ccc2c(c1)C(=C(Cl)Cl)OC(=C(Cl)Cl)O2`: 167 to 168 °C; `Cc1cc(=O)c2ccccc2s1`: 70 °C.
Regarding `C=CCOc1nccnc1Cl`, the melting point was 149 to 150 °C.
Next, `Cc1nc2cccc(OCC(C)(C)C(=O)NCC3CCC3)c2c(N)c1C(=O)O`: 170 to 172 °C.
The value for `CCCCC(=O)OCC(=O)C1C(C)CC2C3CC(Cl)C4=CC(=O)C=CC4(C)C3(Cl)C(O)CC21C` (stereo not given) was 218 °C; that for `CCCCOC1c2ccccc2C(=O)N(CC2CC2)C1(/C=C/C(=O)O)CNC(=O)OC(C)(C)C` (stereo not given) was 229 to 230 °C.
The value for `O=C1CCCCN1CCCC(=O)N1CCC(C2c3ncc(Br)cc3CCc3cc(Cl)cc(Br)c32)CC1` (single isomer, unassigned; (+)) was 101 to 102 °C.
Compound `COc1ccc(-c2cc(=O)n(C)c(OC(C)C)n2)cc1OC` displayed a melting point of 124 to 126 °C.
On to `CCCCCCCC(=O)c1cc2sc3sccc3c2s1`, for which the melting point lay within 130 to 131 °C.
For the compound `CC1CCCN1Cc1ccc(N/C=C2\C(=O)NC(=O)c3ccc(I)cc32)cc1` (stereo not given), the melting point is 157 to 158 °C.
The value for `Oc1cc(C(F)(F)F)nc(C(F)(F)F)c1` was 123 to 130 °C.
The value for `COc1ccc2nc(NC(=O)c3nnn(Cc4ccc(Cl)c(Cl)c4)c3C)sc2c1` was 225 °C; that for `CS(=O)(=O)c1ccc(-n2cccc2-c2ccc(Cl)cc2)cc1` was 203 to 205 °C.
The value for `FC(F)(F)c1cc(Cl)c(-n2ncc(CS)n2)c(Cl)c1` was 58 to 60 °C; that for `CC#CCOc1cc(Oc2c(F)cc(F)cc2F)ncn1` was 60.3 °C.
`CCOC(=O)c1cn(C2CC2)c2nc(N3CCCC(n4ccnn4)C3)c(F)cc2c1=O` (stereo not given) displayed a melting point of 205 to 206 °C.
The compound `Cc1noc(NS(=O)(=O)c2ccccc2C#N)c1Br` displayed a melting point of 152 to 155 °C.
For `O=C(O)C1CCC(c2ccc(O)cc2)CC1` (stereo not given), the melting point was 248 to 250 °C.
The value for `Cc1cc(OC(F)F)cc(NC(=O)NS(=O)(=O)c2ccccc2Cl)n1` was 169 to 170 °C.
Next, `CCCCCCCCCCCCCCOc1ccc(C(=O)OC)cc1`: 56 to 58 °C; `CCC1c2cc(OC)c(OC)cc2C(c2ccc(OC)c(OC)c2)=NNC1C` (stereo not given): 120 to 122 °C; `CC1=NN(c2ccc(Cl)cc2)C(c2ccc(NC(=O)c3cccc(I)c3C(=O)NC(C)C)c(C)c2)C1` (stereo not given): 222 to 224 °C.
The value for `Cc1cc(C#N)ccc1N1CCN(C(=O)OC(C)(C)C)CC1` was 127 to 131 °C.
`CCC(O)(c1c(C(C)C)nn2ccccc12)C(C)C` (stereo not given) registered a melting point of 96 to 98 °C.
The value for `NS(=O)(=O)c1ccc(-n2nc(C(F)F)cc2-c2ccc3c(c2)OCO3)cc1` was 214 to 218 °C; that for `Oc1ccc2cc(-c3csc(Cc4c(Cl)cccc4Cl)n3)ccc2c1` was 191 to 193 °C.
Next, `CCOC(=O)c1ccc(N(CCOc2ccc(C(C)=O)c3ccccc23)C(=O)C(F)(F)F)cc1`: 160 to 161 °C.
The value for `COC(=O)C(C)(C)OCc1cc2nc(Cl)ccc2n1S(=O)(=O)c1ccc2c(c1)OCO2` was 131 °C; that for `CC(=O)c1cnc2c(n1)C(C)(C)CCC2(C)C` was 68 to 69 °C; that for `CCOC(=O)/C(=N\OC1(C)CCCCC1)c1csc(N)n1` was 126 °C.
For the compound `Cn1c(=O)c(-c2ccc(Cl)cc2Cl)cc2c3cc(-c4ccno4)ccc3[nH]c21`, the melting point was in the range of 320 to 323 °C.
The value for `Cc1cc(Oc2ncc(C(F)(F)F)cc2Cl)nn1C(=O)NCCCl` was 98 to 100 °C.
In turn, `Cc1ccc(-n2ccc3c(Cl)nnc(Cl)c32)c(C)c1` showed a melting point of 148 to 149 °C.
Next, `CCc1cccc(C)c1CNc1ccnc2c1nc(C)n2C`: 105 to 109 °C.
In turn, `O/N=C1/c2ccccc2OC12CCCCCC2` returned a melting point of 104 to 106 °C.
